Structures are written as SMILES.

The target of the test is T1, human orexin type 2 receptor (Homo sapiens, UniProt O43614).
T1 construct: expressed in transfected cells
T1 sequence (O43614 1-444): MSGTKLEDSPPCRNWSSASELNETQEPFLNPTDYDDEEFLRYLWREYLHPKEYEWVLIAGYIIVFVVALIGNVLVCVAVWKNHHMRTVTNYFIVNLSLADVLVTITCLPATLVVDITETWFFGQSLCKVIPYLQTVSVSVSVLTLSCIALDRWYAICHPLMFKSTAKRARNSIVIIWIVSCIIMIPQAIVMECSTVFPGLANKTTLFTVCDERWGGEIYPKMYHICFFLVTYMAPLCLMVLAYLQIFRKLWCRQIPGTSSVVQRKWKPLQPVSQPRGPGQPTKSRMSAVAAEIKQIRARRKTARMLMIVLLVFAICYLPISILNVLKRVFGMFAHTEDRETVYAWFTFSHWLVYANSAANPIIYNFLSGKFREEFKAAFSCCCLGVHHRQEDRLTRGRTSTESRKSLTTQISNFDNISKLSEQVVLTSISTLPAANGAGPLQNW
As to the kind of experiment: Measurement of orexin type 2 receptor agonist activity (calcium fluorescence, Fluo-4 AM, FDSS). Particulars: compound at 3 μM; CHO cells forcibly expressing human OX2 receptor; DMSO = 0%, orexin A (human) 10 nM = 100%. It counts as cell-based. From the text: Experimental Example 1: Obtainment of Cell Stably Expressing Human Orexin Type 2 Receptor (hOX2R)
To obtain a cell clone stably expressing human orexin type 2 receptor, human orexin type 2 receptor cDNA was inserted into pcDNA3.1(+) plasmid vector (Invitrogen), and a plasmid DNA for expression of human orexin type 2 receptor (pcDNA3.1(+)/hOX2R) was cloned. The plasmid DNA was introduced into CHO-dhfr cell by an electroporation method, and human orexin type 2 receptor expressing clone cells were obtained by limiting dilution method by using G418 drug resistance as a selection marker.
Experimental Example 2: Measurement of Orexin Type 2 Receptor Agonist Activity
CHO cells forcibly expressing human OX2 receptor were seeded in each well of 384 well black transparent bottom plate (BD Falcon) at 7,500 cells/well, and cultured for one day in a 5% CO2 incubator at 37° C. After removal of the medium in the cell plate, assay buffer A containing a calcium indicator (HBSS (Thermo Fisher Scientific), 20 mM HEPES (Thermo Fisher Scientific), 0.1% BSA (Wako Pure Chemical Industries, Ltd. or Sigma-Aldrich), 2.5 μg/mL Fluo-4 AM (DOJINDO Chemical), 0.08% Pluronic F127 (DOJINDO Chemical), 1.25 mM probenecid (DOJINDO Chemical)) was added at 30 μL/well. The plate was stood for 30 min in a 5% CO2 incubator at 37° C., and further stood at room temperature for 30 min. A test compound prepared by diluting with assay buffer B (HBSS, 20 mM HEPES, 0.1% BSA) was added at 10 μL/well, and the fluorescence value was measured by FDSSμCELL (Hamamatsu Photonics K.K.) every one sec for 1 min, and thereafter every two sec for 1 min 40 sec. The activity (%) of the test compound was calculated assuming that variation in the fluorescence value when DMSO was added instead of the test compound was 0%, and variation in the fluorescence value when orexin A (human) (PEPTIDE INSTITUTE, INC.) was added at the final concentration of 10 nM was 100%. The activity of each compound at the concentration of 3 μM was shown below.
As for `O=C(N[C@H]1CCN(C(=O)N2CCC2)[C@H]1Cc1csc(-c2cccc(F)c2)n1)[C@@H]1CCCO1` [Example 23, (2S)-N-[(2S,3S)-1-(azetidine-1-carbonyl)-2-{[2-(3-fluorophenyl)-1,3-thiazol-4-yl]methyl}pyrrolidin-3-yl]oxolane-2-carboxamide], the “OX2R agonist activity (3 μM, %)” value amounted to 76%.

In the case of `O=C(N[C@H]1CCN(C(=O)C2CCC2)[C@H]1Cc1csc(-c2cccc(F)c2)n1)[C@@H]1CCCO1` [Example 24, (2S)-N-[(2S,3S)-1-(cyclobutanecarbonyl)-2-{[2-(3-fluorophenyl)-1,3-thiazol-4-yl]methyl}pyrrolidin-3-yl]oxolane-2-carboxamide], the “OX2R agonist activity (3 μM, %)” value came to 65%.

For the compound `COC1(C(=O)N[C@H]2CCN(C(=O)N3CCC3)[C@H]2Cc2cccc(-c3cccc(F)c3)n2)CC1` [Example 25, N-[(2S,3S)-1-(azetidine-1-carbonyl)-2-([6-(3-fluorophenyl)pyridin-2-yl]methyl]pyrrolidin-3-yl]-1-methoxycyclopropane-1-carboxamide], the “OX2R agonist activity (3 μM, %)” value came to 54%.

Turning to `COC1(C(=O)N[C@H]2CCN(C(=O)N3CCC3)[C@H]2Cc2csc(-c3cccc(F)c3)n2)CC1` [Example 26, N-[(2S,3S)-1-(azetidine-1-carbonyl)-2-{[2-(3-fluorophenyl)-1,3-thiazol-4-yl]methyl}pyrrolidin-3-yl]-1-methoxycyclopropane-1-carboxamide], the “OX2R agonist activity (3 μM, %)” value came to 67%.

With `COC1(C(=O)N[C@H]2CCN(C(=O)C3CCC3)[C@H]2Cc2csc(-c3cccc(F)c3)n2)CC1` [Example 27, N-[(2S,3S)-1-(cyclobutanecarbonyl)-2-{[2-(3-fluorophenyl)-1,3-thiazol-4-yl]methyl}pyrrolidin-3-yl]-1-methoxycyclopropane-1-carboxamide], the “OX2R agonist activity (3 μM, %)” value was 60%.

Regarding `CN(C)C(=O)C(=O)NC1CCCN(C(=O)C2CCC2)C1Cc1cccc(-c2cccc(F)c2)c1` (stereo not drawn) [Example 29, N^~2^~-{cis-1-(cyclobutanecarbonyl)-2-[(3′-fluoro[1,1′-biphenyl]-3-yl)methyl]piperidin-3-yl}-N^~1^~,N^~1^~- dimethylethanediamide], the “OX2R agonist activity (3 μM, %)” value was determined as 80%.

Consider `CN(C)C(=O)C(=O)N[C@H]1CCN(C(=O)N2CCC2)[C@H]1Cc1cccc(-c2cccc(F)c2)c1` [Example 30, N^~2^~-{(2S,3S)-1-(azetidine-1-carbonyl)-2-[(3′-fluoro[1,1′-biphenyl]-3-yl)methyl]pyrrolidin-3-yl}-N^~1^~,N^~1^~-dimethylethanediamide], for which the “OX2R agonist activity (3 μM, %)” value was 101%.

`O=C(N[C@H]1CCN(C(=O)N2CCC2)[C@H]1Cc1cccc(-c2cccc(F)c2)c1)[C@@H]1CCCO1` [Example 31, (2S)-N-{(2S,3S)-1-(azetidine-1-carbonyl)-2-[(3′-fluoro[1,1′-biphenyl]-3-yl)methyl]pyrrolidin-3-yl}oxolane-2-carboxamide]: the “OX2R agonist activity (3 μM, %)” value was 104%.

Take `CN(C)C(=O)C(=O)N[C@H]1CCN(C(=O)C2CCC2)[C@H]1Cc1cccc(-c2cccc(F)c2)c1` [Example 32, N^~2^~-{(2S,3S)-1-(cyclobutanecarbonyl)-2-[(3′-fluoro[1,1′-biphenyl]-3-yl)methyl]pyrrolidin-3-yl}-N^~1^~,N^~1^~- dimethylethanediamide]: the “OX2R agonist activity (3 μM, %)” value was 103%.

Regarding `O=C(N[C@H]1CCN(C(=O)C2CCC2)[C@H]1Cc1cccc(-c2cccc(F)c2)c1)[C@@H]1CCCO1` [Example 33, (2S)-N-{(2S,3S)-1-(cyclobutanecarbonyl)-2-[(3′-fluoro[1,1′-biphenyl]-3-yl)methyl]pyrrolidin-3-yl}oxolane-2-carboxamide], the “OX2R agonist activity (3 μM, %)” value was 97%.

On to `CN(C)C(=O)C(=O)N[C@H]1CCN(C(=O)C2(F)CCC2)[C@H]1Cc1cccc(-c2cccc(F)c2)c1` [Example 35, N^~2^~-[(2S,3S)-2-[(3′-fluoro[1,1′-biphenyl]-3-yl)methyl]-1-(1-fluorocyclobutane-1-carbonyl)pyrrolidin-3-yl]-N^~1^~,N^~1^~- dimethylethanediamide], for which the “OX2R agonist activity (3 μM, %)” value was 75%.

In the case of `CN(C)C(=O)C(=O)N[C@H]1CCN(C(=O)C2(C#N)CCC2)[C@H]1Cc1cccc(-c2cccc(F)c2)c1` [Example 36, N^~2^~-((2S,3S)-1-(1-cyanocyclobutane-1-carbonyl)-2-[(3′-flluoro[1,1′-biphenyl]-3-yl)methyl]pyrrolidin-3-yl]-N^~1^~,N^~1^~- dimethylethanediamide], the “OX2R agonist activity (3 μM, %)” value stood at 86%.

Consider `CN(C)C(=O)C(=O)N[C@H]1CCN(C(=O)C2(O)CCC2)[C@H]1Cc1cccc(-c2cccc(F)c2)c1` [Example 37, N^~2^~-[(2S,3S)-2-[(3′-fluoro[1,1′-biphenyl]-3-yl)methyl]-1-(1-hydroxycyclobutane-1-carbonyl)pyrrolidin-3-yl]-N^~1^~,N^~1^~- dimethylethanediamide], for which the “OX2R agonist activity (3 μM, %)” value turned out to be 101%.

Regarding `CN(C)C(=O)C(=O)N[C@H]1CCN(C(=O)C(C)(C)CO)[C@H]1Cc1cccc(-c2cccc(F)c2)c1` [Example 40, N^~2^~-[(2S,3S)-2-[(3′-fluoro[1,1′-biphenyl]-3-yl)methyl]-1-(3-hydroxy-2,2-dimethylpropanoyl)pyrrolidin-3-yl]-N^~1^~,N^~1^~-dimethylethanediamide], the “OX2R agonist activity (3 μM, %)” value turned out to be 79%.

As for `O=C(N[C@H]1CCN(C(=O)C2(F)CCC2)[C@H]1Cc1cccc(-c2cccc(F)c2)c1)[C@@H]1CCCO1` [Example 43, (2S)-N-[(2S,3S)-2-[(3′-fluoro[1,1′-biphenyl]-3-yl)methyl]-1-(1-fluorocyclobutane-1-carbonyl)pyrrolidin-3-yl]oxolane-2-carboxamide], the “OX2R agonist activity (3 μM, %)” value is listed as 62%.

Consider `O=C(N[C@H]1CCN(C(=O)C2(O)CCC2)[C@H]1Cc1cccc(-c2cccc(F)c2)c1)[C@@H]1CCCO1` [Example 45], for which the “OX2R agonist activity (3 μM, %)” value is 86%.

Turning to `CC(C)(CO)C(=O)N1CC[C@H](NC(=O)[C@@H]2CCCO2)[C@@H]1Cc1cccc(-c2cccc(F)c2)c1` [Example 46, (2S)-N-[(2S,3S)-2-[(3′-fluoro[1,1′-biphenyl]-3-yl)methyl]-1-(3-hydroxy-2,2-dimethylpropanoyl)pyrrolidin-3-yl]oxolane-2-carboxamide], the “OX2R agonist activity (3 μM, %)” value is listed as 67%.

The values above are taken from patent US11655241B2, “Heterocyclic compound and use thereof” (Takeda Pharmaceutical Company Limited, priority 2018, dated 2023).
